Blank lines part the entries; values can stand above or below the compound they belong to.
How the values were obtained:
[1] = biological target: Rho-associated protein kinase 1 (Homo sapiens, UniProt Q13464); assay: Binding affinity to wild-type partial length human ROCK1 (M1 to R415 residues) expressed in mammalian expression system by Kinomescan assay
[2] = biological target: Rho-associated protein kinase 2 (Homo sapiens, UniProt O75116); assay: Binding affinity to wild-type partial length human ROCK2 (M1 to T431 residues) expressed in mammalian expression system by Kinomescan assay
Rho-associated protein kinase 2, sequence (O75116 whole entry, the tested form may be a part): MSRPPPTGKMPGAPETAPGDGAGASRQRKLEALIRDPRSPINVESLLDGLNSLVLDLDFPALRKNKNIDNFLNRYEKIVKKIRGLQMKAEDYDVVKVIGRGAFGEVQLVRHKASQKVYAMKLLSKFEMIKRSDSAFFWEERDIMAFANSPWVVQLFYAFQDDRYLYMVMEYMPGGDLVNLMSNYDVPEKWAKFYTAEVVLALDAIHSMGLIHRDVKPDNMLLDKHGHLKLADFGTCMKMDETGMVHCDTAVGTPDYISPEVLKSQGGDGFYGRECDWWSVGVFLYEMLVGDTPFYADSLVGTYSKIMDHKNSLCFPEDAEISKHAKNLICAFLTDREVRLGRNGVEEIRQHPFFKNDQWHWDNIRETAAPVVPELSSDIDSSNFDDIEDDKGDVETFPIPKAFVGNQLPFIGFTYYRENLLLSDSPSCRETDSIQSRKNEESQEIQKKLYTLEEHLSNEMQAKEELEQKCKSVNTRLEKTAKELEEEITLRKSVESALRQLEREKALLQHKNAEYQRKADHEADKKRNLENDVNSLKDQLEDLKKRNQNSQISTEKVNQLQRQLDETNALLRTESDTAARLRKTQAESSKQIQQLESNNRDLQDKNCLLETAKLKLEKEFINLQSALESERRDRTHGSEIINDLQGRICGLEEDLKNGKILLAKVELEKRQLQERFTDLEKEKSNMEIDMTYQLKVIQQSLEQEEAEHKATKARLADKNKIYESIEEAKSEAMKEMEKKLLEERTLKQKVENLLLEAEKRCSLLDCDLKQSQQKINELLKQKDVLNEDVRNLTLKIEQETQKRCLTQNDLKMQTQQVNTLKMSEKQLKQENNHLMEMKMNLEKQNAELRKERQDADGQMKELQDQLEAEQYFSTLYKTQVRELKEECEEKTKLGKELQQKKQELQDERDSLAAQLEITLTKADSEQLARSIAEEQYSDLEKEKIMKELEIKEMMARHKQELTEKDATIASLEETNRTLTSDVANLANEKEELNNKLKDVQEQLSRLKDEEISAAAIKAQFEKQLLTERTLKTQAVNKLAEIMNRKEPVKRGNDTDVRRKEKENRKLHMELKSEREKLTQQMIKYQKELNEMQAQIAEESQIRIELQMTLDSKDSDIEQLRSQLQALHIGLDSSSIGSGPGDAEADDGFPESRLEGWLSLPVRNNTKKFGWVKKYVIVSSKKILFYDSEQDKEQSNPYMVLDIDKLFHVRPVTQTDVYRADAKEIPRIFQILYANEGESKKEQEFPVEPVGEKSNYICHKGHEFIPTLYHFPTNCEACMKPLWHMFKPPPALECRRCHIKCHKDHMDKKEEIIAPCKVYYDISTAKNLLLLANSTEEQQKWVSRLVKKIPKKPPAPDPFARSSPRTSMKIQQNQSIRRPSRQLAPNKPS

NHDF = assay: Cytotoxicity against NHDF cells; type: cell-based; settings: Homo sapiens
[3] = biological target: cAMP-dependent protein kinase catalytic subunit alpha (Homo sapiens, UniProt P17612); assay: Binding affinity to wild-type partial length human PKACalpha (G10 to F351 residues) expressed in bacterial expression system by Kinomescan assay
[4] = Selectivity index, ratio of IC50 for NHDF cells to IC50 for VEGF-stimulated HUVEC; design: species or system Homo sapiens
[5] = biological target: Cyclin-dependent kinase 8 (Homo sapiens, UniProt P49336); assay: Binding affinity to wild-type partial length human CDK8 (M1 to T360 residues) expressed in bacterial expression system by Kinomescan assay
Cyclin-dependent kinase 8, sequence (P49336 whole entry, the tested form may be a part): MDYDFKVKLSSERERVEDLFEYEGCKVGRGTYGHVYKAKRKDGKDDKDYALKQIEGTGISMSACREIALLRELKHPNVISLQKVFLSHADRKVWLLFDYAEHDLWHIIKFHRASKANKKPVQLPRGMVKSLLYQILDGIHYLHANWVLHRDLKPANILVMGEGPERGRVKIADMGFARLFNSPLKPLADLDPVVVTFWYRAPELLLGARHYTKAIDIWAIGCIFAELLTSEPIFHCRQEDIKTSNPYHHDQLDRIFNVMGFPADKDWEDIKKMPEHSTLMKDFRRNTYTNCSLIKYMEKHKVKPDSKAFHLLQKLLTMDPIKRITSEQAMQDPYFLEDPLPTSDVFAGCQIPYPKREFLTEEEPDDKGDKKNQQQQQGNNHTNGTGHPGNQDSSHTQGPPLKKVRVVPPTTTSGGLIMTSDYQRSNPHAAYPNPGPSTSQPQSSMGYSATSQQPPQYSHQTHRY

[6] = biological target: T1, Cyclin-dependent kinase 19 (Homo sapiens, UniProt Q9BWU1); assay: Binding affinity to wild-type partial length human CDK11 (M1 to N360 residues) expressed in bacterial expression system by Kinomescan assay
T1 sequence (Q9BWU1 whole entry, the tested form may be a part): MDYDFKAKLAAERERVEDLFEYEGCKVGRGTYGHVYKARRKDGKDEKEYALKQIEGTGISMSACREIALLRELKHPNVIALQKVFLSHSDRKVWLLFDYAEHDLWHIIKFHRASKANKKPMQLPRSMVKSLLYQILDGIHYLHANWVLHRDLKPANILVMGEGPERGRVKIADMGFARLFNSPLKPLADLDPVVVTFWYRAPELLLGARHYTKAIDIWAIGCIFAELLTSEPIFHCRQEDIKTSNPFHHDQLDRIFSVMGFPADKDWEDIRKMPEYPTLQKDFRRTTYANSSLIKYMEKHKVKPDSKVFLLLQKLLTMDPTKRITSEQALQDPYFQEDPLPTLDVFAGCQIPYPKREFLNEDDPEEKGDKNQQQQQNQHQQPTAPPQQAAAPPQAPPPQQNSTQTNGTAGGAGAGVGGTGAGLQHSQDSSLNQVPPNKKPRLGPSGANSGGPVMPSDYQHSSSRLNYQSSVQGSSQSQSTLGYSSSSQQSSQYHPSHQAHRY

HUVEC = assay: Antiproliferative activity against VEGF-stimulated HUVEC; type: functional, cell-based; settings: Homo sapiens
COLO 205 = assay: Growth inhibition of CDK8 over-expressing human COLO205 cells by MTT assay; type: functional
CDK8/Cyclin C = CDK8/Cyclin C (Homo sapiens, UniProt P49336); assay: Inhibition of recombinant human full-length GST/His-fused CDK8/CycC expressed in Sf9 insect cells using RBER-IRStide as substrate after 1 hr in presence of [gamma33P-ATP] by microbeta scintillation counting method
CDK8/Cyclin C, sequence (P49336 whole entry, the tested form may be a part): as the sequence (P49336 whole entry, the tested form may be a part) above
CDK8/Cyclin C, sequence (P24863 whole entry, further chain, the tested form may be a part): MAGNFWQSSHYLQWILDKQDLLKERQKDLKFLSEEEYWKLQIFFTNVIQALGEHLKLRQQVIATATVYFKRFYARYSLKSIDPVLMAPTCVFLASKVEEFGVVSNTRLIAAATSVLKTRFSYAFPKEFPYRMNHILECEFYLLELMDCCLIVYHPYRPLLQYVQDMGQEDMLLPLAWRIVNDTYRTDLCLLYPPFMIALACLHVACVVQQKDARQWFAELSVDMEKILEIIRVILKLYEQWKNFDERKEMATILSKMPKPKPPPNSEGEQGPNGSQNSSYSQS

HCT-116 = assay: Growth inhibition of CDK8 over-expressing human HCT116 cells by MTT assay; type: functional
HT-29 = assay: Growth inhibition of CDK8 over-expressing human HT-29 cells by MTT assay; type: functional
[7] = biological target: T2, Serine/threonine-protein kinase haspin (Homo sapiens) (UniProt Q8TF76); assay: Inhibition of wild-type human partial length HASPIN (I452 to K798 residues) expressed in mammalian expression system at 300 nM by Kinomescan method relative to control
T2 sequence (whole entry): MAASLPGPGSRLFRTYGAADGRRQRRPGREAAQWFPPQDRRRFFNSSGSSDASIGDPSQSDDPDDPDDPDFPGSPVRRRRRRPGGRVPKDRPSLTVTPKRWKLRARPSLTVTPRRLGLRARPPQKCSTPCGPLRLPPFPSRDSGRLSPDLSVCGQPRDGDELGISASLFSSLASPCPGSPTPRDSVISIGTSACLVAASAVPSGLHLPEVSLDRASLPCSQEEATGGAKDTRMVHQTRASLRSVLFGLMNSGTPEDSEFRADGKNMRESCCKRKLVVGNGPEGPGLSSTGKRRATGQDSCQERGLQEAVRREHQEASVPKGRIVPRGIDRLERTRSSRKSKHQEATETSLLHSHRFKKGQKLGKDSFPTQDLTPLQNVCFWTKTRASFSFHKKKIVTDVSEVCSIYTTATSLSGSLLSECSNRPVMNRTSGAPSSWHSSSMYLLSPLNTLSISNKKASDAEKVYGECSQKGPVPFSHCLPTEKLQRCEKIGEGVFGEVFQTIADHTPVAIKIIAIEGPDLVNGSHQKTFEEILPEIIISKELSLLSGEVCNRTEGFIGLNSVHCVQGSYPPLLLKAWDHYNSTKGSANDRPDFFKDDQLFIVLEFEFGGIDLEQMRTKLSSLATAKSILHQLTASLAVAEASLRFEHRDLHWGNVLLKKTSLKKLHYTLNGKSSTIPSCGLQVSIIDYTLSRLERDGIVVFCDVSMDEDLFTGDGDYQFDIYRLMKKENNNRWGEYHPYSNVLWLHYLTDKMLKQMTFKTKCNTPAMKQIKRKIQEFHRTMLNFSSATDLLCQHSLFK

[8] = biological target: T1, Cyclin-dependent kinase 19; assay: Inhibition of wild-type partial length human CDK11 (M1 to N360 residues) expressed in bacterial expression system at 300 nM by Kinomescan assay
[9] = biological target: Cyclin-C/Cyclin-dependent kinase 19 (Homo sapiens, UniProt Q9BWU1); assay: Inhibition of recombinant human GST/His-tagged CDK11 (1 to 502 residues)/cyclinC (1 to 283 residues) catalytic domain expressed in insect cells by Lantha screen eu binding assay
Cyclin-C/Cyclin-dependent kinase 19, sequence (Q9BWU1 whole entry, the tested form may be a part): as the sequence (Q9BWU1 whole entry, the tested form may be a part) above
Cyclin-C/Cyclin-dependent kinase 19, sequence (P24863 whole entry, further chain, the tested form may be a part): as the sequence (P24863 whole entry, further chain, the tested form may be a part) above

Rho-associated protein kinase 1, sequence (Q13464 whole entry, the tested form may be a part): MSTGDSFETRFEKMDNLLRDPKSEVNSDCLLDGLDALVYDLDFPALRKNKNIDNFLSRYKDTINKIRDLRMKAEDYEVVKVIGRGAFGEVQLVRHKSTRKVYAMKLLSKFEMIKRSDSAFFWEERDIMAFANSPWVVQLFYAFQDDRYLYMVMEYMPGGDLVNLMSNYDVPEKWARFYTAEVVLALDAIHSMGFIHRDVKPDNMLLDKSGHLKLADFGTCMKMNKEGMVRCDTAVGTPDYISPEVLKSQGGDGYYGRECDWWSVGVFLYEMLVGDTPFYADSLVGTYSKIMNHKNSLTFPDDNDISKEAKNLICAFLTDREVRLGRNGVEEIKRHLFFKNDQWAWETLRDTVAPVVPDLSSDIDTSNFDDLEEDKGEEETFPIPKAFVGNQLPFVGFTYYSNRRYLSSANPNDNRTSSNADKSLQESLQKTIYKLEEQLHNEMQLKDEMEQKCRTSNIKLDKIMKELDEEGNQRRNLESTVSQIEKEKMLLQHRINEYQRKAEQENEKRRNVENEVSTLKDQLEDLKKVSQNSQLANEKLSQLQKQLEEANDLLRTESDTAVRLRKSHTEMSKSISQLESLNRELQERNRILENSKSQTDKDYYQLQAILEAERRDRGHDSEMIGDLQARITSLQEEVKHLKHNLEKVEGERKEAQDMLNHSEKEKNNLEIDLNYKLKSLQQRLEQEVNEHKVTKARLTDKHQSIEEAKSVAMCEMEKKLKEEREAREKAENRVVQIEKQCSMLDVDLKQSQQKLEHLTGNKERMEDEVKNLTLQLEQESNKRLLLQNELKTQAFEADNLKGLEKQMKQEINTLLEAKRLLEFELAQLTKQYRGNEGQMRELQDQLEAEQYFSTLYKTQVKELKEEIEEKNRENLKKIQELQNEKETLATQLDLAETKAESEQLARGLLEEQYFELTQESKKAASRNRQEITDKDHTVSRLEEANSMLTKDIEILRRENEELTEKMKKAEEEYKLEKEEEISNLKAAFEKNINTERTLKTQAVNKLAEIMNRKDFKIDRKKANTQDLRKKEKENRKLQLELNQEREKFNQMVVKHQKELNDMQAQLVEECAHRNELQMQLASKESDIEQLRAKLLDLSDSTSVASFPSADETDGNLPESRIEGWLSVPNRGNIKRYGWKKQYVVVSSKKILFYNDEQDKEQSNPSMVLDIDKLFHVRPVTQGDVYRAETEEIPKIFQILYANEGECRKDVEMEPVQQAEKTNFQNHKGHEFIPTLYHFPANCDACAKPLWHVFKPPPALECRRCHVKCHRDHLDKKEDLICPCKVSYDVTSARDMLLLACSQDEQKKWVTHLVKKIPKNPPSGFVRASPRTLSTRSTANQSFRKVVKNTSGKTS

Structure (SMILES): CN(C)[C@H]1C[C@@]23CC[C@@]4(O2)C(=CC[C@]2(C)[C@@H](c5ccc6ccncc6c5)CC[C@H]24)C=C3[C@@H](O)[C@@H]1O
Kd [1]: 0.25 µM
Kd [2]: 0.22 µM
IC50 (NHDF): 6 µM
Kd [3]: 3.5 µM
Ratio IC50 [4]: 3300
Kd [5]: 0.017 µM
Kd [6]: 0.01 µM
IC50 (HUVEC): 0.0018 µM

Structure (SMILES): N#Cc1ccc2ncnc(NCCc3ccccc3)c2c1
Kd [5]: 0.83 µM
Kd [6]: 0.31 µM

Structure (SMILES): Cc1ccc(NC(=O)Nc2ccc(Cc3ccncc3)cc2)cc1C
GI50 (COLO 205): 6.43 to 11.3 µM
IC50 (CDK8/Cyclin C): 0.018 µM
GI50 (HCT-116): 6.43 to 11.3 µM
GI50 (HT-29): 6.43 to 11.3 µM

Structure (SMILES): Cc1ccc(NC(=O)Nc2nnc(-c3cccc(F)c3)s2)cc1C
GI50 (COLO 205): 6.43 to 11.3 µM
IC50 (CDK8/Cyclin C): 0.047 µM
GI50 (HCT-116): 6.43 to 11.3 µM
GI50 (HT-29): 6.43 to 11.3 µM

Structure (SMILES): O=C(/C=C/c1cnccc1-c1ccc(F)cc1)Nc1ccc(CCc2nnco2)cc1
inhibition [8]: 94%

Results, then the compound that gave them:

GI50 (COLO 205): 6.43 to 11.3 µM
IC50 (CDK8/Cyclin C): 0.386 µM
GI50 (HCT-116): 6.43 to 11.3 µM
GI50 (HT-29): 6.43 to 11.3 µM
Structure (SMILES): Fc1ccc2nccc(Nc3ccccc3F)c2c1

inhibition [7]: 99%
inhibition [8]: 99%
Structure (SMILES): Cc1ncccc1Oc1sc(C(N)=O)c2c1-c1c(cnn1C)CC2

IC50 [9]: > 30 µM
Structure (SMILES): CC1CCc2nc(N)c(C#N)c(-c3cccnc3)c2C1 (stereo unspecified)
